One block for each compound: values may come before it.
How the values were obtained:
[1] = system: Moloney murine sarcoma virus; assay: Antiviral activity against Moloney murine sarcoma virus infected in murine C3H/3T3 embryo fibroblasts assessed as inhibition of virus-induced transformation incubated for 6 days by microscopic analysis; type: functional, organism-based
[2] = system: Human immunodeficiency virus; assay: Antiviral activity against HIV infected in human CEM cells assessed as inhibition of virus induced cytopathicity incubated for 4 days by microscopic analysis; type: functional, organism-based; conditions: ccrf-cem
[3] = Cytotoxicity against human HEL cells assessed as minimum cytotoxic concentration for change in cellular morphology incubated for 3 days by microscopic analysis; type: cell-based
[4] = system: Human alphaherpesvirus 3; assay: Antiviral activity against thymidine kinase positive Varicella zoster virus OKA infected in human HEL cells assessed as reduction in plaque formation measured after 5 days; type: functional, organism-based; conditions: Human alphaherpesvirus 3, OKA, 120 h
[5] = system: Cytomegalovirus; assay: Antiviral activity against Cytomegalovirus Davis infected in human HEL cells assessed as reduction in virus-induced cytopathogenicity measured after 6 to 7 days; type: functional, organism-based; conditions: Human betaherpesvirus 5, Davis
[6] = system: Human alphaherpesvirus 3; assay: Antiviral activity against thymidine kinase deficient Varicella zoster virus 07-1 infected in human HEL cells assessed as reduction in plaque formation measured after 5 days; type: functional, organism-based; conditions: Human alphaherpesvirus 3, 07-1, HEL, 120 h
[7] = system: Cytomegalovirus; assay: Antiviral activity against Cytomegalovirus AD169 infected in human HEL cells assessed as reduction in virus-induced cytopathogenicity measured after 6 to 7 days; type: functional, organism-based; conditions: Human betaherpesvirus 5, AD169, HEL
[8] = Cytotoxicity against human HEL cells assessed as reduction in cell proliferation incubated for 3 days by Coulter counter method; type: cell-based
[9] = Selectivity index, ratio of CC50 for human HEL cells to EC50 for antiviral activity against Cytomegalovirus AD169 infected in human HEL cells; type: toxicity, cell-based; conditions: read-out: Ratio CC50/EC50
[10] = Selectivity index, ratio of CC50 for human HEL cells to EC50 for antiviral activity against Cytomegalovirus Davis infected in human HEL cells; type: toxicity, cell-based; conditions: read-out: Ratio CC50/EC50
[11] = Selectivity index, ratio of CC50 for human HEL cells to EC50 for antiviral activity against thymidine kinase positive Varicella zoster virus OKA infected in human HEL cells; type: toxicity, cell-based; conditions: read-out: Ratio CC50/EC50
[12] = system: Hepatitis B virus; assay: Antiviral activity against Hepatitis B virus ayw1 infected in human HepG2.2.15 cells assessed as reduction in virus DNA replication measured after 6 days by qRT-PCR analysis; type: functional, organism-based; conditions: ayw1, HepG2 2.2.15, 144 h
[13] = Selectivity index, ratio of CC50 for human HEL cells to EC50 for antiviral activity against thymidine kinase deficient Varicella zoster virus 07-1 infected in human HEL cells; type: toxicity, cell-based; conditions: read-out: Ratio CC50/EC50

- EC50 [2]: 0.16 to 0.43 µM
Structure (SMILES): Cc1c(N)nc(N)nc1OCCOCP(=O)(O)O
- EC50 [1]: 0.16 to 0.43 µM

Structure (SMILES): CCCCOC(=O)[C@@H](NP(=O)(COC(C)COc1nccc(N)n1)Oc1ccccc1)C(C)C (some centres undefined)
- MCC at 72 h [3]: > 100 µM
- EC50 [4]: > 100 µM
- EC50 [5]: > 100 µM
- EC50 [6]: > 100 µM
- EC50 [7]: > 100 µM

- EC50 [4]: 3.79 µM
- EC50 [5]: 0.8 µM
- EC50 [6]: 25.3 µM
- EC50 [7]: 2.36 µM
Structure (SMILES): Nc1ccnc(OC[C@H](CF)OCP(=O)(O)O)n1
- CC50 at 72 h [8]: > 100 µM
- MCC at 72 h [3]: > 100 µM

Structure (SMILES): CCCCCOC(=O)[C@@H](NP(=O)(CO[C@H](CF)COc1nccc(N)n1)Oc1ccccc1)C(C)C (mixture of isomers)
- MCC at 72 h [3]: > 100 µM
- EC50 [4]: 38.6 µM
- EC50 [5]: 7.61 µM
- EC50 [6]: 35.9 µM
- EC50 [7]: > 100 µM

- EC50 [4]: > 100 µM
- EC50 [5]: > 100 µM
- EC50 [6]: > 100 µM
- EC50 [7]: > 100 µM
Structure (SMILES): Nc1ccnc(OC[C@@H](CF)OCP(=O)(O)O)n1 (mixture of isomers)
- CC50 at 72 h [8]: > 100 µM
- MCC at 72 h [3]: > 100 µM

Structure (SMILES): CCCCCOC(=O)[C@@H](NP(=O)(CO[C@@H](C)COc1ncc(F)c(N)n1)Oc1ccccc1)C(C)C (mixture of isomers)
- MCC at 72 h [3]: > 100 µM
- EC50 [4]: > 100 µM
- EC50 [5]: > 100 µM
- EC50 [6]: > 100 µM
- EC50 [7]: > 100 µM

Structure (SMILES): CCCCCOC(=O)[C@@H](NP1(=O)CO[C@@H](COc2nccc(N)n2)CO1)C(C)C (mixture of isomers)
- MCC at 72 h [3]: > 100 µM
- EC50 [4]: > 100 µM
- EC50 [5]: > 100 µM
- EC50 [6]: > 100 µM
- EC50 [7]: > 100 µM

Structure (SMILES): CCCCCOC(=O)[C@@H](NP(=O)(CO[C@@H](CF)COc1nccc(N)n1)Oc1ccccc1)C(C)C (mixture of isomers)
- CC50 at 72 h [8]: 79.3 µM
- MCC at 72 h [3]: > 100 µM
- selectivity ratio [9]: 220 to 818
- selectivity ratio [10]: 220 to 818
- EC50 [4]: 0.36 µM
- selectivity ratio [11]: 220 to 818
- EC50 [5]: 0.097 µM
- EC50 [12]: 2.1 to 8.71 µM
- selectivity ratio [13]: 220 to 818
- EC50 [6]: 0.18 µM
- EC50 [7]: 0.26 µM

Structure (SMILES): CCCCCOC(=O)C[C@H](NP(=O)(CO[C@@H](CF)COc1nccc(N)n1)Oc1ccccc1)C(=O)OCCCCC (mixture of isomers)
- CC50 at 72 h [8]: 51.8 µM
- MCC at 72 h [3]: > 100 µM
- selectivity ratio [9]: 96 to 551
- selectivity ratio [10]: 96 to 551
- EC50 [4]: 0.36 µM
- selectivity ratio [11]: 96 to 551
- EC50 [5]: 0.094 µM
- EC50 [12]: 2.1 to 8.71 µM
- selectivity ratio [13]: 96 to 551
- EC50 [6]: 0.098 µM
- EC50 [7]: 0.54 µM

Structure (SMILES): CCCCCOC(=O)[C@@H](NP(=O)(CO[C@H](C)COc1ncc(F)c(N)n1)Oc1ccccc1)C(C)C (mixture of isomers)
- MCC at 72 h [3]: > 100 µM
- EC50 [4]: > 100 µM
- EC50 [5]: > 100 µM
- EC50 [6]: > 100 µM
- EC50 [7]: > 100 µM

Structure (SMILES): CCCCCOC(=O)[C@@H](NP(=O)(CO[C@@H](CF)COc1ncc(F)c(N)n1)Oc1ccccc1)C(C)C (mixture of isomers)
- CC50 at 72 h [8]: > 100 µM
- MCC at 72 h [3]: > 100 µM
- EC50 [4]: 6.73 µM
- EC50 [5]: 4.7 µM
- EC50 [12]: 2.1 to 8.71 µM
- EC50 [6]: 2.94 µM
- EC50 [7]: 11.2 µM

Structure (SMILES): CCCCCOC(=O)[C@@H](NP1(=O)CO[C@H](COc2nccc(N)n2)CO1)C(C)C (mixture of isomers)
- CC50 at 72 h [8]: > 100 µM
- MCC at 72 h [3]: > 100 µM
- EC50 [4]: 53.6 µM
- EC50 [5]: 4.76 µM
- EC50 [6]: 35.7 µM
- EC50 [7]: 14 µM

Structure (SMILES): CCCCCOC(=O)C[C@H](NP(=O)(CO[C@H](CF)COc1nccc(N)n1)Oc1ccccc1)C(=O)OCCCCC (mixture of isomers)
- CC50 at 72 h [8]: > 100 µM
- MCC at 72 h [3]: > 100 µM
- EC50 [4]: 38.2 µM
- EC50 [5]: 48.2 µM
- EC50 [6]: 24.7 µM
- EC50 [7]: 62.8 µM

Structure (SMILES): CCCCCOC(=O)[C@@H](NP(=O)(CO[C@H](C)COc1nccc(N)n1)Oc1ccccc1)C(C)C (mixture of isomers)
- MCC at 72 h [3]: > 100 µM
- EC50 [4]: > 100 µM
- EC50 [5]: > 100 µM
- EC50 [6]: > 100 µM
- EC50 [7]: > 100 µM

Structure (SMILES): CCCCCOC(=O)[C@@H](NP1(=O)CO[C@H](COc2ncc(F)c(N)n2)CO1)C(C)C (mixture of isomers)
- MCC at 72 h [3]: > 100 µM
- EC50 [4]: > 100 µM
- EC50 [5]: > 100 µM
- EC50 [6]: > 100 µM
- EC50 [7]: > 100 µM

Structure (SMILES): CCCCCOC(=O)[C@@H](NP(=O)(CO[C@@H](C)COc1nccc(N)n1)Oc1ccccc1)C(C)C (mixture of isomers)
- MCC at 72 h [3]: > 100 µM
- EC50 [4]: > 100 µM
- EC50 [5]: > 100 µM
- EC50 [6]: > 100 µM
- EC50 [7]: > 100 µM

Structure (SMILES): CCCCCOC(=O)[C@@H](NP(=O)(CO[C@H](CF)COc1ncc(F)c(N)n1)Oc1ccccc1)C(C)C (mixture of isomers)
- MCC at 72 h [3]: > 100 µM
- EC50 [4]: > 100 µM
- EC50 [5]: > 100 µM
- EC50 [6]: > 100 µM
- EC50 [7]: > 100 µM

Structure (SMILES): CCCCCOC(=O)[C@@H](NP1(=O)CO[C@@H](COc2ncc(F)c(N)n2)CO1)C(C)C (mixture of isomers)
- MCC at 72 h [3]: > 100 µM
- EC50 [4]: > 100 µM
- EC50 [5]: > 100 µM
- EC50 [6]: > 100 µM
- EC50 [7]: > 100 µM

Structure (SMILES): Nc1nc2c(ncn2COCCO)c(=O)[nH]1 [ACYCLOVIR]
- CC50 at 72 h [8]: > 444 µM
- MCC at 72 h [3]: > 444 µM

Structure (SMILES): O=c1[nH]c(=O)n([C@H]2C[C@H](O)[C@@H](CO)O2)cc1/C=C/Br [BRIVUDINE]
- CC50 at 72 h [8]: > 300 µM
- MCC at 72 h [3]: > 300 µM
- EC50 [4]: 0.089 µM
- EC50 [6]: 0.18 µM

Structure (SMILES): Nc1ccn(C[C@@H](CO)OCP(=O)(O)O)c(=O)n1 [CIDOFOVIR]
- CC50 at 72 h [8]: > 317 µM
- MCC at 72 h [3]: > 317 µM
- EC50 [5]: 0.94 µM
- EC50 [7]: 1.74 µM

- EC50 [5]: 4.44 µM
- EC50 [7]: 13 µM
Structure (SMILES): Nc1nc2c(ncn2COC(CO)CO)c(=O)[nH]1 [GANCICLOVIR]
- CC50 at 72 h [8]: > 394 µM
- MCC at 72 h [3]: > 394 µM
